Experimental findings from patent US20250230165A1, “HETEROCYCLIC COMPOUNDS FOR USE IN THE TREATMENT OF CANCER” (ARTIOS PHARMA LIMITED, priority 2021, published 2025) are described below.

The target of this assay is T1, Human Polθ polymerase domain (aa1820-2590) (Homo sapiens, UniProt O75417).
T1 construct: Human Polθ polymerase domain (aa1820-2590) was expressed in E. coli; made in house; host or cells: E. coli
T1 sequence (O75417 1820-2590): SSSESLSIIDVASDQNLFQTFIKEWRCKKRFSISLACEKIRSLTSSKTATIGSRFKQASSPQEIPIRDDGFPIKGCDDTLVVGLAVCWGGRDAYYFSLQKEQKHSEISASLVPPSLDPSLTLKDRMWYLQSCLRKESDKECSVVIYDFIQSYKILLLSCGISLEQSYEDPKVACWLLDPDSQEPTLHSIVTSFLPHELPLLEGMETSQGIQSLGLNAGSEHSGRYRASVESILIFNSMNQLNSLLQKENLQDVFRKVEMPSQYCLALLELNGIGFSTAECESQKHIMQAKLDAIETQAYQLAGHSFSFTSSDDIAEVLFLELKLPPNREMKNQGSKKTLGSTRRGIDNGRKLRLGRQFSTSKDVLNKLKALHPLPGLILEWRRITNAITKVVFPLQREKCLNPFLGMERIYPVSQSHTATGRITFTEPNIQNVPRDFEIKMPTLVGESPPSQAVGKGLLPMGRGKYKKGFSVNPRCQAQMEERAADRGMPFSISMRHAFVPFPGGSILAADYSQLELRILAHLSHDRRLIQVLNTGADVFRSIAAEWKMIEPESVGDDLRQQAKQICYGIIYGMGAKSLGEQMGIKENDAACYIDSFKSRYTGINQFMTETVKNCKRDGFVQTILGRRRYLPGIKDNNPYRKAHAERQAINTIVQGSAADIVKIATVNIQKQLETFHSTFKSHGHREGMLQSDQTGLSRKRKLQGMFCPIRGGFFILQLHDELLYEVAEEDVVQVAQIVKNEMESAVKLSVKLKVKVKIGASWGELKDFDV
The assay is described as follows: Polθ Polymerase Domain Kinact/KI Assay (PicoGreen). Type of assay: biochemical. The settings on record: 0.8 nM Polθ, 100 nM DNA substrate, kobs vs [I] fit for 2-step covalent inhibitor. In short, it runs like this:
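Time-dependent inhibition was followed by quenching reactions with EDTA at points up to 60 min, then staining product DNA with PicoGreen fluorescence. Reactions held 0.8 nM E. coli-expressed Polθ, 100 nM primed DNA substrate and […] at pH 7.5, 1% DMSO. kobs versus inhibitor concentration gave Kinact and KI.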
Molecule `C=C(CN(C)C)C(=O)NCCOCCN1C[C@H]2CC(=O)N(c3cc(C(F)(F)F)cc(C)n3)[C@@H]2C(=O)N(C)c2cccc(C)c21` [Example 85, N-(2-(2-((3aR,11aS)-6,10-dimethyl-1-(6-methyl-4-(trifluoromethyl)pyridin-2-yl)-2,11-dioxo-1,2,3,3a,4,10,11,11a-octahydro-5H-benzo[b]pyrrolo[2,3-f][1,4]diazocin-5-yl)ethoxy)ethyl)-2-((dimethylamino)methyl)acrylamide] returned a Kinact/Kl of 1.82e+06 M⁻¹ s⁻¹. Take `C=C(CN(C)C)C(=O)N1CCN(C(=O)CCN2C[C@H]3CC(=O)N(c4cc(C(F)(F)F)cc(C)n4)[C@@H]3C(=O)N(C)c3cccc(Cl)c32)CC1` [Example 86, (3aR,11aS)-6-chloro-5-(3-(4-(2-((dimethylamino)methyl)acryloyl)piperazin-1-yl)-3-oxopropyl)-10-methyl-1-(6-methyl-4-(trifluoromethyl)pyridin-2-yl)-1,3a,4,5,10,11a-hexahydro-2H-benzo[b]pyrrolo[2,3-f][1,4]diazocine-2,11(3H)-dione]: the Kinact/Kl is 3.49e+06 M⁻¹ s⁻¹. For `C=CC(=O)Nc1ccc(CN2C[C@H]3CC(=O)N(c4cc(C(F)(F)F)cc(C)n4)[C@@H]3C(=O)N(C)c3cccc(C)c32)cc1` [Example 87, N-(4-(((3aR,11aS)-6,10-dimethyl-1-(6-methyl-4-(trifluoromethyl)pyridin-2-yl)-2,11-dioxo-1,2,3,3a,4,10,11,11a-octahydro-5H-benzo[b]pyrrolo[2,3-f][1,4]diazocin-5-yl)methyl)phenyl)acrylamide] the value was 810000 M⁻¹ s⁻¹; for `Cc1cc(C(F)(F)F)cc(N2C(=O)C[C@@H]3CN(Cc4ccc(NC(=O)C5=CCCNC5)cc4)c4c(C)cccc4N(C)C(=O)[C@H]32)n1` [Example 88, N-(4-(((3aR,11aS)-6,10-dimethyl-1-(6-methyl-4-(trifluoromethyl)pyridin-2-yl)-2,11-dioxo-1,2,3,3a,4,10,11,11a-octahydro-5H-benzo[b]pyrrolo[2,3-f][1,4]diazocin-5-yl)methyl)phenyl)-1,2,5,6-tetrahydropyridine-3-carboxamide], 4.75e+06 M⁻¹ s⁻¹; for `C/C=C(\CN(C)C)C(=O)Nc1ccc(CN2C[C@H]3CC(=O)N(c4cc(C(F)(F)F)cc(C)n4)[C@@H]3C(=O)N(C)c3cccc(C)c32)cc1` [Example 89, (E)-N-(4-(((3aR,11aS)-6,10-dimethyl-1-(6-methyl-4-(trifluoromethyl)pyridin-2-yl)-2,11-dioxo-1,2,3,3a,4,10,11,11a-octahydro-5H-benzo[b]pyrrolo[2,3-f][1,4]diazocin-5-yl)methyl)phenyl)-2-((dimethylamino)methyl)but-2-enamide], 2.4e+06 M⁻¹ s⁻¹. The same measure for `C=CC(=O)Nc1ccc(CN2C[C@H]3CC(=O)N(c4cc(C(F)(F)F)cc(C)n4)[C@@H]3C(=O)N(C)c3cccc(C)c32)cc1OC` [Example 90, N-(4-(((3aR,11aS)-6,10-dimethyl-1-(6-methyl-4-(trifluoromethyl)pyridin-2-yl)-2,11-dioxo-1,2,3,3a,4,10,11,11a-octahydro-5H-benzo[b]pyrrolo[2,3-f][1,4]diazocin-5-yl)methyl)-2-methoxyphenyl)acrylamide]: 2.09e+06 M⁻¹ s⁻¹; for `C=CC(=O)Nc1ccc(CN2C[C@H]3CC(=O)N(c4cc(C(F)(F)F)cc(C)n4)[C@@H]3C(=O)N(C)c3cccc(C)c32)cc1N(C)CCN(C)C` [Example 91, N-(4-(((3aR,11aS)-6,10-dimethyl-1-(6-methyl-4-(trifluoromethyl)pyridin-2-yl)-2,11-dioxo-1,2,3,3a,4,10,11,11a-octahydro-5H-benzo[b]pyrrolo[2,3-f][1,4]diazocin-5-yl)methyl)-2-((2-(dimethylamino)ethyl)(methyl)amino)phenyl)acrylamide]: 4.38e+06 M⁻¹ s⁻¹; for `C=CC(=O)N1CC(N2CCC(CN3C[C@H]4CC(=O)N(c5cc(C(F)(F)F)cc(C)n5)[C@@H]4C(=O)N(C)c4cccc(Cl)c43)CC2)C1` [Example 92, (3aR,11aS)-5-((1-(1-acryloylazetidin-3-yl)piperidin-4-yl)methyl)-6-chloro-10-methyl-1-(6-methyl-4-(trifluoromethyl)pyridin-2-yl)-1,3a,4,5,10,11a-hexahydro-2H-benzo[b]pyrrolo[2,3-f][1,4]diazocine-2,11(3H)-dione]: 2.56e+06 M⁻¹ s⁻¹. `C=CC(=O)N1CC(N2CCC(CN3C[C@H]4CC(=O)N(c5cc(C(F)(F)F)cc(C)n5)[C@@H]4C(=O)N(C)c4cccc(C)c43)CC2)C1` [Example 93, (3aR,11aS)-5-((1-(1-acryloylazetidin-3-yl)piperidin-4-yl)methyl)-6,10-dimethyl-1-(6-methyl-4-(trifluoromethyl)pyridin-2-yl)-1,3a,4,5,10,11a-hexahydro-2H-benzo[b]pyrrolo[2,3-f][1,4]diazocine-2,11(3H)-dione] registered a Kinact/Kl of 2.73e+06 M⁻¹ s⁻¹. `C=CC(=O)N1CC(N2CCC(F)(CN3C[C@H]4CC(=O)N(c5cc(C(F)(F)F)cc(C)n5)[C@@H]4C(=O)N(C)c4cccc(C)c43)CC2)C1` [Example 94, (3aR,11aS)-5-((1-(1-acryloylazetidin-3-yl)-4-fluoropiperidin-4-yl)methyl)-6,10-dimethyl-1-(6-methyl-4-(trifluoromethyl)pyridin-2-yl)-1,3a,4,5,10,11a-hexahydro-2H-benzo[b]pyrrolo[2,3-f][1,4]diazocine-2,11(3H)-dione]: the Kinact/Kl turned out to be 1.54e+06 M⁻¹ s⁻¹.

`C=CC(=O)N1CC(N2CCC(CN3C[C@H]4CC(=O)N(c5cc(C(F)(F)F)cc(C)n5)[C@@H]4C(=O)N(C)c4cccc(Cl)c43)C(O)C2)C1` (stereo partly drawn) [Example 96, (3aR,11aS)-5-((1-(1-acryloylazetidin-3-yl)-3-hydroxypiperidin-4-yl)methyl)-6-chloro-10-methyl-1-(6-methyl-4-(trifluoromethyl)pyridin-2-yl)-1,3a,4,5,10,11a-hexahydro-2H-benzo[b]pyrrolo[2,3-f][1,4]diazocine-2,11(3H)-dione] displayed a Kinact/Kl of 810000 M⁻¹ s⁻¹.

As to `C=CC(=O)N1CC(N2CCN(C(C)CN3C[C@H]4CC(=O)N(c5cc(C(F)(F)F)cc(C)n5)[C@@H]4C(=O)N(C)c4cccc(F)c43)CC2)C1` (stereo partly drawn) [Example 97, (3aR,11aS)-5-(2-(4-(1-acryloylazetidin-3-yl)piperazin-1-yl)propyl)-6-fluoro-10-methyl-1-(6-methyl-4-(trifluoromethyl)pyridin-2-yl)-1,3a,4,5,10,11a-hexahydro-2H-benzo[b]pyrrolo[2,3-f][1,4]diazocine-2,11(3H)-dione], the Kinact/Kl is 1.18e+06 M⁻¹ s⁻¹. The molecule `C=CC(=O)N1CC(c2nc(CN3C[C@H]4CC(=O)N(c5cc(C(F)(F)F)cc(C)n5)[C@@H]4C(=O)N(C)c4cccc(F)c43)n[nH]2)C1` [Example 98, (3aR,11aS)-5-((5-(1-acryloylazetidin-3-yl)-1H-1,2,4-triazol-3-yl)methyl)-6-fluoro-10-methyl-1-(6-methyl-4-(trifluoromethyl)pyridin-2-yl)-1,3a,4,5,10,11a-hexahydro-2H-benzo[b]pyrrolo[2,3-f][1,4]diazocine-2,11(3H)-dione] returned a Kinact/Kl of 430000 M⁻¹ s⁻¹.
